SMILES strings stand for the structures. Where a name gives a salt, the structure may show the parent alone.

The target in one experiment is T1, catalytic domain of human PARP14 (residues 1611 to 1801) with NanoLuc tag (Homo sapiens, UniProt Q460N5).
T1 construct: expressed in transfected cells; host or cells: HEK-293T cells (ATCC), pcDNA3.1(-) vector
T1 sequence (Q460N5 1611-1801): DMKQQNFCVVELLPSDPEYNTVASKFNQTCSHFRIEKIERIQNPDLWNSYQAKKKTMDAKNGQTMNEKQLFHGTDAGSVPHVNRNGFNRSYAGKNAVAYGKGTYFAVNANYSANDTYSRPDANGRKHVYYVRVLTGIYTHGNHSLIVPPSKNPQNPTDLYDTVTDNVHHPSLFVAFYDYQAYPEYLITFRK
In words: NanoLuc assay for the degradation of PARP14 (NanoLuc-tagged PARP14 overexpressed in HEK-293T cells, 2 hours). The experiment is classed as cell-based. To be noted: Assay A (Example A): NanoLuc-tagged PARP14 degradation in HEK-293T cells. On the procedure: The insert also contained a NanoLuc tag on the N terminus of the PARP14 protein.
Degradation of PARP14 protein was assessed using measurement of the NanoLuc tag as proxy for the PARP14 protein. […] Plasmid DNA was diluted in empty vector DNA then added to 1.163 mL of phenol red free OptiMEM (Thermo Fisher). Plasmid DNA concentrations used in each assay described in Table 1. The plasmid DNA was mixed with 78.5 μL of Fugene HD (Promega) and allowed to incubate 5 minutes.
The transfection was incubated for 24 hrs at 37 degrees in an incubator supplemented with 5% CO2. The cells were then trypsinized and brought up in phenol red free OptiMEM media. […] 40 nL of a dose response curve diluted in DMSO of each test compound was added to the cell plate using a Mosquito (TTP Labtech) and the plate was incubated at 37° C. for 2 hours. Assay plate was brought to room temperature then 20 μL per well of NanoGlo (Promega) was added to the plate. Luminescence was measured on an Envision (Perkin Elmer).
The average DMSO was calculated from 32 wells containing 0.1% DMSO only in columns 12 and 24 of the assay plate. The % of DMSO values were calculated as described below: […]
The % of DMSO values were plotted as a function of compound concentration and the following 4-parameter fit was applied to derive the DC50 values:
where top, bottom, and Hill Coefficient are allowed to float. Y is the % of DMSO and X is the compound concentration
DC50 data for the Example compounds is provided below in Table 2 (“+” is <0.1 μM; “++” is ≥0.1 μM and <1 μM; and “+++” is ≥1 μM).
On to `O=C1CCC(Nc2ccc(N3CCN(CCN4CCC(COc5cc(F)c6c(=O)[nH]c(CCC7CCOCC7)nc6c5)CC4)CC3)cc2)C(=O)N1` (stereo not drawn) [Example 82, 3-((4-(4-(2-(4-(((5-fluoro-4-oxo-2-(2-(tetrahydro-2H-pyran-4-yl)ethyl)-3,4-dihydroquinazolin-7-yl)oxy)methyl)piperidin-1-yl)ethyl)piperazin-1-yl)phenyl)amino)piperidine-2,6-dione], for which the half-maximal degradation concentration (DC50) (commonly the concentration at which degradation of the target reaches its halfway point) is below 100 nM.

Still in this experiment, the particulars now being: Assay A (Example A): NanoLuc-tagged PARP14 degradation in HEK-293T cells, read-out: DC50.
As for `O=C1CCC(Nc2ccc(C3CCN(CC4CCN(C(=O)CN5CCC(COc6cc(F)c7c(=O)[nH]c(CSC8CCOCC8)nc7c6)CC5)CC4)CC3)cc2)C(=O)N1` (stereo not drawn) [Example 18, 3-((4-(1-((1-(2-(4-(((5-fluoro-4-oxo-2-(((tetrahydro-2H-pyran-4-yl)thio)methyl)-3,4-dihydroquinazolin-7-yl)oxy)methyl)piperidin-1-yl)acetyl)piperidin-4-yl)methyl)piperidin-4-yl)phenyl)amino)piperidine-2,6-dione], the DC50 was below 100 nM.

Regarding `O=C1CCC(Nc2ccc(N3CCN(CCN4CCC(COc5cc(F)c6c(=O)[nH]c(CSC7CCOCC7)nc6c5)CC4)CC3)c(C(F)(F)F)c2)C(=O)N1` (stereo not drawn) [Example 50, 3-((4-(4-(2-(4-(((5-fluoro-4-oxo-2-(((tetrahydro-2H-pyran-4-yl)thio)methyl)-3,4-dihydroquinazolin-7-yl)oxy)methyl)piperidin-1-yl)ethyl)piperazin-1-yl)-3-(trifluoromethyl)phenyl)amino)piperidine-2,6-dione], the 50% degradation concentration (DC50) was below 100 nM. As to `O=C(CN1CCC(COc2cc(F)c3c(=O)[nH]c(CSC4CCOCC4)nc3c2)CC1)NCCOCCOCCNc1cccc2c1C(=O)N(C1CCC(=O)NC1=O)C2=O` (stereo not drawn) [Example 7, N-(2-(2-(2-((2-(2,6-dioxopiperidin-3-yl)-1,3-dioxoisoindolin-4-yl)amino)ethoxy)ethoxy)ethyl)-2-(4-(((5-fluoro-4-oxo-2-(((tetrahydro-2H-pyran-4-yl)thio)methyl)-3,4-dihydroquinazolin-7-yl)oxy)methyl)piperidin-1-yl)acetamide], the DC50 is below 100 nM.

Consider `O=C1CCC(Nc2ccc(OCC3CC(N4CCC(COc5cc(F)c6c(=O)[nH]c(CSC7CCOCC7)nc6c5)CC4)C3)cc2)C(=O)N1` (stereo not drawn) [Example 46, 3-((4-((3-(4-(((5-fluoro-4-oxo-2-(((tetrahydro-2H-pyran-4-yl)thio)methyl)-3,4-dihydroquinazolin-7-yl)oxy)methyl)piperidin-1-yl)cyclobutyl)methoxy)phenyl)amino)piperidine-2,6-dione], for which the DC50 is below 100 nM. `O=C1CCC(Nc2ccc(N3CC4CC(C3)N4CCN3CCC(COc4cc(F)c5c(=O)[nH]c(CSC6CCOCC6)nc5c4)CC3)cc2)C(=O)N1` (stereo not drawn) [Example 73, 3-((4-(6-(2-(4-(((5-fluoro-4-oxo-2-(((tetrahydro-2H-pyran-4-yl)thio)methyl)-3,4-dihydroquinazolin-7-yl)oxy)methyl)piperidin-1-yl)ethyl)-3,6-diazabicyclo[3.1.1]heptan-3-yl)phenyl)amino)piperidine-2,6-dione]: the 50% degradation concentration (DC50) is below 100 nM. For the molecule `O=C1CC[C@@H](Nc2ccc(N3CCN(CCN4CCC(COc5cc(F)c6c(=O)[nH]c(CSC7CCOCC7)nc6c5)CC4)CC3)cc2)C(=O)N1` (single isomer, unassigned) [Example 48b], the half-maximal degradation concentration (DC50) was below 100 nM. Same read-out and setting: for `O=C1CCN(c2cccc(N3CC(CN4CCC(COc5cc(F)c6c(=O)[nH]c(CSC7CCOCC7)nc6c5)CC4)C3)c2)C(=O)N1` [Example 54, 1-(3-(3-((4-(((5-fluoro-4-oxo-2-(((tetrahydro-2H-pyran-4-yl)thio)methyl)-3,4-dihydroquinazolin-7-yl)oxy)methyl)piperidin-1-yl)methyl)azetidin-1-yl)phenyl)dihydropyrimidine-2,4(1H,3H)-dione formate salt] the value was below 100 nM. As for `O=C1CCC(Nc2ccc(N3C4CC3CN(CCN3CCC(COc5cc(F)c6c(=O)[nH]c(CSC7CCOCC7)nc6c5)CC3)C4)cc2)C(=O)N1` (stereo not drawn) [Example 71, 3-((4-(3-(2-(4-(((5-fluoro-4-oxo-2-(((tetrahydro-2H-pyran-4-yl)thio)methyl)-3,4-dihydroquinazolin-7-yl)oxy)methyl)piperidin-1-yl)ethyl)-3,6-diazabicyclo[3.1.1]heptan-6-yl)phenyl)amino)piperidine-2,6-dione], the DC50 is below 100 nM. As for `O=C1CCN(c2ccc(C3CCN(CC4CCN(C(=O)CN5CCC(COc6cc(F)c7c(=O)[nH]c(CSC8CCOCC8)nc7c6)CC5)CC4)CC3)cc2)C(=O)N1` [Example 19, 1-(4-(1-((1-(2-(4-(((5-fluoro-4-oxo-2-(((tetrahydro-2H-pyran-4-yl)thio)methyl)-3,4-dihydroquinazolin-7-yl)oxy)methyl)piperidin-1-yl)acetyl)piperidin-4-yl)methyl)piperidin-4-yl)phenyl)dihydropyrimidine-2,4(1H,3H)-dione], the DC50 was below 100 nM. The same measure, in the same setting: as for `O=C1CCC(N2C(=O)c3ccc(N4CCC(N5CCN(Cc6cc(F)c7c(=O)[nH]c(CSC8CCOCC8)nc7c6)CC5)CC4)cc3C2=O)C(=O)N1` (stereo not drawn) [Example 85, 2-(2,6-dioxopiperidin-3-yl)-5-(4-(4-((5-fluoro-4-oxo-2-(((tetrahydro-2H-pyran-4-yl)thio)methyl)-3,4-dihydroquinazolin-7-yl)methyl)piperazin-1-yl)piperidin-1-yl)isoindoline-1,3-dione], the figure is below 100 nM; as for `O=C1CCC(Nc2ccc(N3CCC(N4CC(N5CCC(COc6cc(F)c7c(=O)[nH]c(CSC8CCOCC8)nc7c6)CC5)C4)CC3)cc2)C(=O)N1` (stereo not drawn) [Example 88, 3-((4-(4-(3-(4-(((5-fluoro-4-oxo-2-(((tetrahydro-2H-pyran-4-yl)thio)methyl)-3,4-dihydroquinazolin-7-yl)oxy)methyl)piperidin-1I-yl)azetidin-1-yl)piperidin-1-yl)phenyl)amino)piperidine-2,6-dione], below 100 nM.

Turning to `O=C1CCC(N2C(=O)c3ccc(NC(=O)CN4CCC(COc5cc(F)c6c(=O)[nH]c(CSC7CCOCC7)nc6c5)CC4)cc3C2=O)C(=O)N1` (stereo not drawn) [Example 25, N-(2-(2,6-dioxopiperidin-3-yl)-1,3-dioxoisoindolin-5-yl)-2-(4-(((5-fluoro-4-oxo-2-(((tetrahydro-2H-pyran-4-yl)thio)methyl)-3,4-dihydroquinazolin-7-yl)oxy)methyl)piperidin-1-yl)acetamide], the DC50 is below 100 nM. The same measure, in the same setting: as for `O=C1CCC(Nc2ccc(N3CCN(CCN4CCC(COc5cc(F)c6c(=O)[nH]c(CSC7CCOCC7)nc6c5)CC4)CC3C(F)(F)F)cc2)C(=O)N1` (stereo not drawn) [Example 122], the figure is below 100 nM; as for `O=C1CCC(N2Cc3c(cccc3N3CCN(CC4CCN(C(=O)CN5CCC(COc6cc(F)c7c(=O)[nH]c(CSC8CCOCC8)nc7c6)CC5)CC4)CC3)C2=O)C(=O)N1` (stereo not drawn) [Example 17, 3-(4-(4-((1-(2-(4-(((5-fluoro-4-oxo-2-(((tetrahydro-2H-pyran-4-yl)thio)methyl)-3,4-dihydroquinazolin-7-yl)oxy)methyl)piperidin-1-yl)acetyl)piperidin-4-yl)methyl)piperazin-1-yl)-1-oxoisoindolin-2-yl)piperidine-2,6-dione], below 100 nM.

With `O=C1CCC(N2C(=O)c3cccc(OC4CC(CN5CCC(COc6cc(F)c7c(=O)[nH]c(CSC8CCOCC8)nc7c6)CC5)C4)c3C2=O)C(=O)N1` (single isomer, unassigned) [Example 80b, 2-(2,6-dioxopiperidin-3-yl)-4-((1s,3s)-3-((4-(((5-fluoro-4-oxo-2-(((tetrahydro-2H-pyran-4-yl)thio)methyl)-3,4-dihydroquinazolin-7-yl)oxy)methyl)piperidin-1-yl)methyl)cyclobutoxy)isoindoline-1,3-dione], the DC50 was below 100 nM. Same read-out and setting: for `O=C1CCC(Nc2ccc(N3CCN(CCN4CCC(COc5cc(F)c6c(=O)[nH]c(CS[C@H]7CC[C@H](O)CC7)nc6c5)CC4)CC3)cc2)C(=O)N1` (stereo partly drawn) [Example 83, 3-((4-(4-(2-(4-(((5-fluoro-2-((((1r,4r)-4-hydroxycyclohexyl)thio)methyl)-4-oxo-3,4-dihydroquinazolin-7-yl)oxy)methyl)piperidin-1-yl)ethyl)piperazin-1-yl)phenyl)amino)piperidine-2,6-dione] the value was below 100 nM; for `CN(c1ccc(N2CCN(CCN3CCC(COc4cc(F)c5c(=O)[nH]c(CSC6CCOCC6)nc5c4)CC3)CC2)cc1)C1CCC(=O)NC1=O` (stereo not drawn) [Example 66, 3-((4-(4-(2-(4-(((5-fluoro-4-oxo-2-(((tetrahydro-2H-pyran-4-yl)thio)methyl)-3,4-dihydroquinazolin-7-yl)oxy)methyl)piperidin-1-yl)ethyl)piperazin-1-yl)phenyl)(methyl)amino)piperidine-2,6-dione], below 100 nM.

The values above are taken from patent US20240101540A1, “TARGETED PROTEIN DEGRADATION OF PARP14 FOR USE IN THERAPY” (Ribon Therapeutics, Inc., priority 2022, published 2024).
